Data as given in BindingDB's records for doi:10.1016/j.bmcl.2005.03.034 (Glaxosmithkline, 2005).

Biological target: Vascular endothelial growth factor receptor 2 (Homo sapiens, UniProt P35968)
Experiment: Homogeneous Time-resolved Fluorescence (HTRF) Assay
Excerpt: The assay was using baculovirus-expressed recombinant protein kinase purified as the intracellular domain fused by GST tag, interacting with biotinylated peptide substrate. HTRF is based on the proximity of europium cryptate (donor fluorophore)-labeled antiphosphotyrosine and streptavidin labeled with APC(allophycocyanin), which have been brought together by a binding reaction. When the two entities come into close proximity and upon excitation, energy transfer occurs and APC re-emits at 665 nm.

Vascular endothelial growth factor receptor 2, sequence (P35968 whole entry): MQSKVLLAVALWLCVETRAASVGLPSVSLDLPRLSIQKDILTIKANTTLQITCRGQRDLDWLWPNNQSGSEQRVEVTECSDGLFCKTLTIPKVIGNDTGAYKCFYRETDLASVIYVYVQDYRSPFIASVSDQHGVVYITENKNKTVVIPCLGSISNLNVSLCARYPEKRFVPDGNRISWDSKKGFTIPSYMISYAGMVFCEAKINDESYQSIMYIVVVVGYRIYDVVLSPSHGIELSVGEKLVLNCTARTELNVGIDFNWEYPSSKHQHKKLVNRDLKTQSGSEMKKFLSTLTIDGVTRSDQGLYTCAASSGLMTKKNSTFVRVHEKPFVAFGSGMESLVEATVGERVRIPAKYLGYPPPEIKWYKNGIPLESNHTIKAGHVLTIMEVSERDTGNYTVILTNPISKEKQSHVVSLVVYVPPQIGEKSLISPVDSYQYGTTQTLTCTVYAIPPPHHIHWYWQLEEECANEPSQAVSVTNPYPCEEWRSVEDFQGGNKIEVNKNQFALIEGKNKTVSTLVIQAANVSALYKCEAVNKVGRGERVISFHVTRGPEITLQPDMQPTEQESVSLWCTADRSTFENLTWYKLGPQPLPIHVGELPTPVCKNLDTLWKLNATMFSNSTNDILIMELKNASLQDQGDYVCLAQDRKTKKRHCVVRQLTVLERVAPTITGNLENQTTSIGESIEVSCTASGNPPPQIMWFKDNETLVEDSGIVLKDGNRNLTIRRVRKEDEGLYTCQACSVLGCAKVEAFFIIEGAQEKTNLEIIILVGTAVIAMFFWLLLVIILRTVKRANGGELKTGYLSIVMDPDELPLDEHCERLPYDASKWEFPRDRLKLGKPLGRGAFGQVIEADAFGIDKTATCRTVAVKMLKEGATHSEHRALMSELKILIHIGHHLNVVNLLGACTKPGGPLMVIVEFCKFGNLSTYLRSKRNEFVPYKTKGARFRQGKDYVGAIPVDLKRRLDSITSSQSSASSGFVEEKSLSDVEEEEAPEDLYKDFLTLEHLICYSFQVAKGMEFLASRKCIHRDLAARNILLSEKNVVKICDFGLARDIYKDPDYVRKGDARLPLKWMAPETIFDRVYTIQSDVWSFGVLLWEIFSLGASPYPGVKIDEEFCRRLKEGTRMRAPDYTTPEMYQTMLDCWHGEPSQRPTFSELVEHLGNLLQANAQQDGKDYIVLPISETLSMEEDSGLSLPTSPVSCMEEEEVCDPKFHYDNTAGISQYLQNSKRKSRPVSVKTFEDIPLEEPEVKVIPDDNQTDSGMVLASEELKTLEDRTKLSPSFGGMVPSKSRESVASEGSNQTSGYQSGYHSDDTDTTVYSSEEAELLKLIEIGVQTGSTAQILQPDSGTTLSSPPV

Row | Compound | IC50 [nM]
1 | CN(c1ccc(NC(=N)Nc2ccccc2)cc1)c1ccnc(Nc2cccc(CS(C)(=O)=O)c2)n1 [1-{4-[(2-{[3-(methanesulfonylmethyl)phenyl]amino}pyrimidin-4-yl)(methyl)amino]phenyl}benzeneguanidine] | 324
2 | CN(c1ccc(NC(=S)Nc2ccccc2)cc1)c1ccnc(Nc2cccc(CS(C)(=O)=O)c2)n1 [3-{4-[(2-{[3-(methanesulfonylmethyl)phenyl]amino}pyrimidin-4-yl)(methyl)amino]phenyl}-1-phenylthiourea] | 117
3 | CN(c1ccc(NC(=O)Oc2ccccc2)cc1)c1ccnc(Nc2cccc(CS(C)(=O)=O)c2)n1 [phenyl N-{4-[(2-{[3-(methanesulfonylmethyl)phenyl]amino}pyrimidin-4-yl)(methyl)amino]phenyl}carbamate] | 95

The remaining compounds from weak to strong by IC50, led by results:

Row | IC50 [nM] | Compound
4 | 269 | CN(c1ccc(NS(=O)(=O)Cc2ccccc2)cc1)c1ccnc(Nc2cccc(CS(C)(=O)=O)c2)n1 [N-{4-[(2-{[3-(methanesulfonylmethyl)phenyl]amino}pyrimidin-4-yl)(methyl)amino]phenyl}-1-phenylmethanesulfonamide]
5 | 176 | CN(c1ccc(NC(=O)Cc2ccccc2)cc1)c1ccnc(Nc2cccc(CS(C)(=O)=O)c2)n1 [N-{4-[(2-{[3-(methanesulfonylmethyl)phenyl]amino}pyrimidin-4-yl)(methyl)amino]phenyl}-2-phenylacetamide]
6 | 18 | CN(c1ccc(NC(=O)Nc2ccccc2)cc1)c1ccnc(Nc2cccc(CS(C)(=O)=O)c2)n1 [3-{4-[(2-{[3-(methanesulfonylmethyl)phenyl]amino}pyrimidin-4-yl)(methyl)amino]phenyl}-1-phenylurea]
7 | 5 | CN(c1ccc(NC(=O)Nc2ccccc2)cc1)c1ccnc(Nc2cccc(S(N)(=O)=O)c2)n1 [3-{4-[methyl({2-[(3-sulfamoylphenyl)amino]pyrimidin-4-yl})amino]phenyl}-1-phenylurea]
